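Five concentrations, 48 hours, 96-well plates. The concentration for 50% growth inhibition is given as GI50. TGI: total growth inhibition.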
System: MDA-MB-468 breast
Assay: inhibition of tumour cell growth, NCI panel, 48 h

| Structure (SMILES) | GI50 [nM] | TGI [µM] |
| --- | --- | --- |
| OCc1ccc(-c2nc(-c3ccc4c(c3)OCO4)c(-c3ccccn3)[nH]2)cc1 | > 25000 | > 25 |
| CC(C)(C)c1cc(C[P+](c2ccccc2)(c2ccccc2)c2ccccc2)cc(C(C)(C)C)c1O | 216 | 0.771 |
| COc1cccc(/C=N\NC(=O)c2ccncc2)c1O | 2320 | 11.2 |
| Cc1ccc(-c2cc(C(=O)Nc3ccc(S(=O)(=O)N4CCCCC4)cc3)[nH]n2)c(O)c1 | > 100000 | > 100 |
| CCN1/C(=C/C(C)=C/c2sc3ccc4ccccc4c3[n+]2CC)Sc2ccc3ccccc3c21 | 15.6 | 0.156 |
| COc1ccc(C(=O)/C=C/c2cc(-c3ccc(OC)c(OC)c3)n[nH]2)cc1OC | 1090 | 2.56 |
| O=C1CN=C(c2ccc[nH]2)c2cc(Cl)ccc2N1 | > 100000 | > 100 |
| NC(=O)c1cn(C2CC(O)C(CO)O2)c2ncnc(N)c12 (stereo not given) | 486 | 3.77 |
| Cc1nnn(C)c1-c1cnc2c3ccc(C(C)(C)O)cc3n([C@H](c3ccccc3)C3CCOCC3)c2c1 | < 10 | 8.91 |
| CCCCCCOC(=O)CC1=C(C)/C(=C/c2[nH]c(-c3ccc[nH]3)cc2OC)N=C1C | 155 | 1.43 |
| COC(=O)CCc1n(Cc2ccc3ccccc3c2)c2ccccc2[n+]1Cc1ccc2ccccc2c1 | 196 | 1.13 |
| Cn1cnc([N+](=O)[O-])c1S(=O)(=O)Oc1ccc(Cl)cc1 | 1740 | 3.7 |
| COC(=O)c1c2c(c(C)[n+]([O-])c1C)C(=O)C(NCc1ccccc1)=CC2=O | 1300 | 3.15 |
| CCOc1ccccc1/C=N\N=C(N/N=C/c1ccccc1OCC)N/N=C/c1ccccc1OCC | 1540 | 7.16 |
| CC(C)CCN(CCC(C)C)CC(=O)Nc1ccc(S(=O)(=O)c2ccc(NC(=O)CN(CCC(C)C)CCC(C)C)cc2)cc1 | 2390 | 7.52 |
| CCCCN(CCCC)P(=O)(Oc1ccccc1)Oc1ccccc1 | 3030 | 11.7 |
| O=C1OC2(c3ccc(O)cc3Oc3cc(O)ccc32)c2cccc3cccc1c23 | 16100 | 34.3 |
| COC(=O)[C@H](Cc1cn(C)cn1)NC(=O)[C@H](CC(C)C)NC(=O)Nc1cc(C(F)(F)F)cc(C(F)(F)F)c1 | 3710 | > 10 |
| CCOC(=O)c1c(NN2CCN(CC(F)(F)F)CC2)oc(/C=C2\C=Nc3ncccc32)c1O | 3010 | 12 |
| Clc1cc(Br)ccc1-c1ccc(CNCC2CCNCC2)o1 | 1710 | 3.41 |
| COc1cccc2c1C(=O)c1c(O)c3c(c(O)c1C2=O)C[C@](O)(C(=O)CO)C[C@H]3O[C@@H]1C[C@@H](NC(=O)CCCN(C)C2(c3ccc(F)cc3)CC3CCC2C3)[C@H](O)[C@@H](C)O1 (stereo not given in full) | 879 | 1.73 |
| CCn1nc(C2CCN(C(=O)CCO)CC2)nc1-c1cnc(N)c(-c2nnc(C(C)(C)C)o2)n1 | 1280 | 16.1 |
| O=C(COc1ccccc1)NNc1ccccc1 | > 300000 | > 300 |

| Structure (SMILES) | GI50 [nM] | TGI [µM] |
| --- | --- | --- |
| COc1ccc(C)c2sc(N(Cc3cccnc3)C(=O)c3ccc(C#N)cc3)nc12 | 35000 | > 100 |
| C#CCNC1CCC(c2csc(C#C)n2)=C1C (stereo not given) | 3170 | 18.8 |
| CCOC(=O)c1ccc(N2NC(=O)/C(=C/c3ccc([N+](=O)[O-])o3)C2=O)cc1 | 6690 | 14.5 |
| COc1ccc(C2c3ccc4ccccc4c3Oc3ncn(CCCn4ccnc4)c(=N)c32)cc1OC (stereo not given) | 2120 | 5.45 |
| COc1ccc(Nc2ncc(I)c(NCCCNC(=O)C3CCC3)n2)cc1 | 11900 | 38.6 |
| CCCCCN(CCCCC)CCC[C@@H](C)[C@H]1CC[C@H]2[C@@H]3[C@H](OCCCN)C[C@@H]4C[C@H](OCCCN)CC[C@]4(C)[C@H]3C[C@H](OCCCN)[C@]12C | 13000 | 29.8 |
| CCCCCSc1ccc2nc(NC(=O)OCC)sc2c1 | 564 | 14.8 |
| Cc1ncc(C(=O)Nc2ccc(CN3CCN(C)CC3)c(C(F)(F)F)c2)cc1C#Cc1cnc(N)c2ccc(C#N)cc12 | 61.3 | 5.13 |
| c1cc(OCCN2CCCC2)ccc1CNc1ccc2nc(CCC3CCCCC3)[nH]c2c1 | 1470 | 3.63 |
| Cc1cccc2c(=O)c3c(sc12)c(NCCCNCCO)nc1ccccc13 | 1470 | 3.04 |
| COc1ccc(Sc2[nH]c(C=O)c3ccccc23)cc1 | 1420 | 24.3 |
| COc1cc(CSc2nc3ccc(Cl)cc3c(=O)n2Cc2ccccc2)cc(OC)c1OC | 1070 | 4.03 |
| COc1cc(OC)c(C(=O)/C=C/c2ccc(C#N)cc2)c(OC)c1 | 1170 | 3.48 |
| COc1cc2c(cc1OC)[C@@H]1C(=O)c3ccc4c(c3O[C@@H]1CO2)C[C@H](C(C)C)O4 | < 18.1 | 0.867 |
| Cc1[nH]c(C(=O)Nc2ccc(C(=O)NCCN)cc2OC(C)C)c(Cl)c1Cl | 1910 | 3.67 |
| Clc1ccc(-c2cnc3c(-c4ccnc(N5CCNCC5)c4)cnn3c2)cc1 | 1540 | 2.99 |
| CCCCCCCCCCCCCCCCn1cc[n+](C)c1 | 92 | 0.431 |
| Cc1[nH]c2ccccc2c1CO | 19400 | 41.4 |
| CCc1cc2c(c(OCC(F)(F)F)c(C(=O)NC3CCN(C(=O)CO)CC3)n2C)c(=O)n1CC(=O)c1ccccc1 | 70600 | > 100 |
| CC(C)[C@@]12C[C@@H](OC(=O)C3CO3)[C@@](C)(O1)[C@@H]1CC[C@@H](C)[C@H]1[C@@H]2OC(=O)/C=C/c1ccccc1 (stereo not given in full) | 16900 | 34.8 |
| CCCN(CCC)c1ccc(/C=N/NC(=O)c2cccnc2)c(C)c1 | 2950 | 15.1 |
| O=C(Nc1ccc(I)cc1F)c1cc(Br)ccc1O | 401 | 2.33 |
